In test [1] the test system is S. aureus ATCC 6538. Put plainly: MIC determination, reference strain (microdilution). It is filed as cell-based. Particulars: Staphylococcus aureus, ATCC6538; S. aureus ATCC 6538; ± SD; Co-trimoxazole as sulfamethoxazole/trimethoprim; read-out: MIC.
Test [2] concerns S. epidermidis ATCC 14990. The description is as above. It counts as cell-based. Particulars: Staphylococcus epidermidis, ATCC14990; S. epidermidis ATCC 14990; Co-trimoxazole as sulfamethoxazole/trimethoprim; read-out: MIC.
The test system of the next test is E. hirae ATCC 10541. The test is described as above. It counts as cell-based. The following applies: Enterococcus hirae, ATCC10541; E. hirae ATCC 10541; Co-trimoxazole as sulfamethoxazole/trimethoprim; read-out: MIC.
The next test deals with E. faecalis ATCC 51299. The description is as above. It counts as cell-based. Particulars: Enterococcus faecalis, ATCC51299; E. faecalis ATCC 51299; Co-trimoxazole as sulfamethoxazole/trimethoprim; read-out: MIC.
A further test deals with B. subtilis ATCC 6633. The description is as above. It counts as cell-based. The following applies: Bacillus subtilis, ATCC6633; B. subtilis ATCC 6633; Co-trimoxazole as sulfamethoxazole/trimethoprim; read-out: MIC.
The test system of a further test is C. diphtheriae. The description is as above. It is filed as cell-based. Particulars: Corynebacterium diphtheriae; C. diphtheriae; Co-trimoxazole as sulfamethoxazole/trimethoprim; read-out: MIC.
For the next test, the system named is E. coli ATCC 8739. Described as above. It is filed as cell-based. Particulars: Escherichia coli, ATCC8739; E. coli ATCC 8739; Co-trimoxazole as sulfamethoxazole/trimethoprim; read-out: MIC.
The test system of test [3] is S. aureus ATCC 6538. As to the kind of experiment: Blood bacteriostatic activity test in sheep blood. It is filed as cell-based, Staphylococcus aureus. Particulars: 24 h, 37 °C, t0 1.30 × 10^8, control t24 2.28 × 10^9. The procedure: (§1) The manifestation of the bactericidal properties of chemical compounds is low minimum bactericidal concentration (MBC) values, which allows many groups of researchers to check the killing rate over time (time killing tests). It is an important element in determining the strength and speed of action of a compound on bacteria. Such studies are usually carried out in bacterial media, without additional factors influencing the results.
(§2) This step was carried out on two types of bacteria, S. aureus ATCC 6538 (Figure 8 and Table 2) and S. epidermidis ATCC 14 990 (Figure 9 and Table 3).
(§3) The number of bacteria at the initial time (t0) was 1.30 × 10^8 CFU/mL for S. aureus and 1.70 × 10^7 CFU/mL for S. epidermidis. Live bacterial cells were assayed after 24 h of incubation at 37 °C. […] Bacterial controls without compounds grew unhindered and after 24 h (t24) were 2.28 × 10^9 for S. aureus and 5.10 × 10^8 CFU/mL for S. epidermidis. […] It can be assumed that the tested compounds were not related to any fraction of the blood. Attention should be paid to the S. epidermidis tests and the difference between the number of bacteria at t0 and after 24 h of incubation for each compound. The number of bacteria at t0 was 1.70 × 10^7 CFU/mL and after 24 h it decreased to, e.g., 9.40 × 10^6 CFU/mL for compounds 16e and 7.80 × 10^6 CFU/mL for compound 17c. It can be assumed that the tested compounds after being added to blood samples prevented bacteria from multiplying. However, under these conditions, the phagocytic cells take up the bacteria. […] This can be explained by much greater variety of mechanisms of action of S. aureus against phagocytic cells than of S. epidermidis. This can be integrated with the bacterial cell compounds, e.g., protein A, as well as enzymes that bacteria can secrete outside the cell, e.g., coagulase and staphylokinase. Additional studies should be conducted to check how the tested compounds affect the enzymes secreted by S. aureus.
(§4) The assay was performed as previously described by with a modification. Pure sheep blood was used for the research. Two strains of bacteria S. aureus ATCC 6538 and S. epidermidis ATCC 14990 were used with an inoculum density of approximately 10^8 CFU/mL at 0 time. The final concentration of the compounds was 0.5, 1, 2, 4, and 8 µg/mL, and the final volume of the assay tube was 1 mL. Bacterial survivors were determined on MH agar plates (CFU/mL) at 24 h after exposure.

Test [4] relates to S. epidermidis ATCC 14990. As to the kind of experiment: Blood bacteriostatic activity test in sheep blood. It counts as cell-based, Staphylococcus epidermidis. Particulars: 24 h, 37 °C, t0 1.70 × 10^7, control t24 5.10 × 10^8. As for the experimental part:
as §1, §2, §3, §4

The subject of the next test is HeLa cells. As to the kind of experiment: MTT assay. It counts as cell-based, human. Particulars: for IC50: HeLa, MTT, 24 h treatment; for Selectivity index (SI): IC50 HEK-293 / IC50 HeLa.
The test system of the next test is SKOV-3 cells. Put plainly: MTT assay. It counts as cell-based, human. The following applies: for IC50: Homo sapiens, SK-OV-3, SKOV-3, MTT, 24 h treatment, read-out: IC50; for Selectivity index (SI): IC50 HEK-293 / IC50 SKOV-3.
Another test deals with MCF-7 cells. As to the kind of experiment: MTT assay. It is filed as cell-based, human. Particulars: for IC50: Homo sapiens, MCF7, MCF-7, MTT, 24 h treatment, read-out: IC50; for Selectivity index (SI): IC50 HEK-293 / IC50 MCF-7.
Another test deals with HEK-293 cells. As to the kind of experiment: MTT assay, noncancerous cells. It counts as cell-based. The following applies: Homo sapiens, HEK293; HEK-293; MTT, 24 h treatment; read-out: IC50.
A further test can be described thus: ABTS assay. The following applies: ABTS radical scavenging; 10 min, 30 °C.
Setting [5] is: Homo sapiens, 24 h, read-out: IC50.

Values after ≈ are worked out from the molar mass of the structure shown. Like-named read-outs stand apart in the source and are kept apart here.

Consider `Cc1cc(S(=O)(=O)NC(=O)/C=C/c2ccc(Cl)cc2)c(SCc2cccc3ccccc23)cc1Cl` [Compound 16d, (E)–N–{4–Chloro–5–methyl–2–[(naphthalen–1–yl)methylthio]phenylsulfonyl}–3–(4–chlorophenyl)acrylamide], for which the MIC in the test on S. aureus ATCC 6538 [1] was 1 µg/mL (≈ 1.84 µM); in test [2], 1 ± 0.29 µg/mL (≈ 1.84 µM); with E. hirae ATCC 10541, 2 ± 0.58 µg/mL (≈ 3.69 µM); in the test with E. faecalis ATCC 51299, 2 ± 0.87 µg/mL (≈ 3.69 µM); with B. subtilis ATCC 6633, 62.5 ± 0.29 µg/mL (≈ 115 µM); with C. diphtheriae, more than 125 µg/mL. Further, the MIC in the test with E. coli ATCC 8739 is more than 125 µg/mL. In addition, the “Number of viable cells of Staphylococcus aureus” value was 1.88 × 10^8 CFU/mL in the test with S. aureus ATCC 6538 [3] (1 µg/mL), 1.66 × 10^8 CFU/mL in the test with S. aureus ATCC 6538 [3] (2 µg/mL), 1.58 × 10^8 CFU/mL in the test with S. aureus ATCC 6538 [3] (4 µg/mL) and 1.27 × 10^8 CFU/mL in the test on S. aureus ATCC 6538 [3] (8 µg/mL). Moreover, the “Number of viable cells of Staphylococcus epidermidis” value is 4.00 × 10^6 CFU/mL in [4] (1 µg/mL), 3.00 × 10^6 CFU/mL in test [4] (2 µg/mL), 2.00 × 10^6 CFU/mL in [4] (4 µg/mL) and 2.50 × 10^6 CFU/mL in test [4] (8 µg/mL). For the same molecule, the IC50 in the test with HeLa cells was 9.66 ± 0.75 µg/mL (≈ 17.8 µM); in the test on HeLa cells (setting [5]) it was less than 10 µg/mL; with SKOV-3 cells, 7.87 ± 0.03 µg/mL (≈ 14.5 µM); in the test with MCF-7 cells, 12.8 ± 0.29 µg/mL (≈ 23.6 µM); with HEK-293 cells, 10.8 ± 0.4 µg/mL (≈ 19.9 µM). Also, the “Selectivity index (SI)” value with HeLa cells was 1.1; in the test with SKOV-3 cells it was 1.4; with MCF-7 cells it was 0.8. In the test “ABTS assay”, the “IC50 ABTS” value came out at 627.81 ± 2.29 µg/mL (≈ 1160 µM).

With `COc1ccc(/C=C/C(=O)NS(=O)(=O)c2cc(C)c(Cl)cc2SCc2cccc3ccccc23)cc1F` [Compound 16e, (E)–N–{4–Chloro–5–methyl–2–[(naphthalen–1–yl)methylthio]phenylsulfonyl}–3–(3–fluoro–4–methoxyphenyl)acrylamide], the MIC in the test on S. aureus ATCC 6538 [1] was 2 ± 0.58 µg/mL (≈ 3.6 µM); in test [2], 1 ± 0.29 µg/mL (≈ 1.8 µM); in the test on E. hirae ATCC 10541 it was 4 ± 0.15 µg/mL (≈ 7.19 µM); in the test with E. faecalis ATCC 51299, 4 ± 0.15 µg/mL (≈ 7.19 µM); with B. subtilis ATCC 6633, 62.5 ± 0.29 µg/mL (≈ 112 µM); in the test on C. diphtheriae, 62.5 ± 0.29 µg/mL (≈ 112 µM). The MIC in the test with E. coli ATCC 8739 was more than 125 µg/mL. Besides, the “Number of viable cells of Staphylococcus aureus” value with S. aureus ATCC 6538 [3] (1 µg/mL) is 2.15 × 10^8 CFU/mL; with S. aureus ATCC 6538 [3] (2 µg/mL), 1.27 × 10^8 CFU/mL; in the test on S. aureus ATCC 6538 [3] (4 µg/mL), 1.94 × 10^8 CFU/mL; in the test on S. aureus ATCC 6538 [3] (8 µg/mL), 2.80 × 10^8 CFU/mL. The “Number of viable cells of Staphylococcus epidermidis” value is 9.40 × 10^6 CFU/mL in test [4] (1 µg/mL), 4.00 × 10^6 CFU/mL in test [4] (2 µg/mL), 3.20 × 10^6 CFU/mL in test [4] (4 µg/mL) and 3.00 × 10^6 CFU/mL in test [4] (8 µg/mL). Further, the IC50 was 12.3 ± 0.2 µg/mL (≈ 22.2 µM) with HeLa cells (setting [5]), 12.2 ± 0.23 µg/mL (≈ 21.9 µM) in the test with SKOV-3 cells, 15.5 ± 0.82 µg/mL (≈ 27.8 µM) in the test with MCF-7 cells and 10 ± 0.23 µg/mL (≈ 18 µM) in the test with HEK-293 cells. Also, the entries for the “Selectivity index (SI)” value with HeLa cells, in the test with SKOV-3 cells and with MCF-7 cells were 0.8, 0.8 and 0.6, respectively. For the same molecule, the “IC50 ABTS” value in the test “ABTS assay” stood at 697.70 ± 0.43 µg/mL (≈ 1250 µM).

`Cc1cc(S(=O)(=O)NC(=O)/C=C/c2ccc(Cl)cc2)c(SCc2cc3c(cc2Cl)OCO3)cc1Cl` [Compound 17c, (E)–N–{4–Chloro–2–[(6–chlorobenzo[d][1,3]dioxol–5–yl)methylthio]–5–methylphenylsulfonyl}–3–(4–chlorophenyl)acrylamide]: the MIC with S. aureus ATCC 6538 [1] was 1 ± 0.29 µg/mL (≈ 1.75 µM); in test [2], 1 ± 0.29 µg/mL (≈ 1.75 µM); in the test with E. hirae ATCC 10541 it was 2 ± 0.58 µg/mL (≈ 3.5 µM); with E. faecalis ATCC 51299, 2 ± 0.58 µg/mL (≈ 3.5 µM); in the test with B. subtilis ATCC 6633 it was 62.5 ± 0.29 µg/mL (≈ 109 µM); in the test with C. diphtheriae, more than 125 µg/mL. Besides, the MIC with E. coli ATCC 8739 was more than 125 µg/mL. Besides, the “Number of viable cells of Staphylococcus aureus” value in the test on S. aureus ATCC 6538 [3] (1 µg/mL) is reported as 2.24 × 10^8 CFU/mL; with S. aureus ATCC 6538 [3] (2 µg/mL), 1.09 × 10^8 CFU/mL; with S. aureus ATCC 6538 [3] (4 µg/mL) it was 2.02 × 10^8 CFU/mL; in the test on S. aureus ATCC 6538 [3] (8 µg/mL), 9.35 × 10^7 CFU/mL. The “Number of viable cells of Staphylococcus epidermidis” value in [4] (1 µg/mL) is 7.80 × 10^6 CFU/mL; in test [4] (2 µg/mL), 4.25 × 10^6 CFU/mL; in test [4] (4 µg/mL), 1.40 × 10^7 CFU/mL; in test [4] (8 µg/mL), 5.10 × 10^6 CFU/mL. For the same molecule, the IC50 with HeLa cells (setting [5]) was found to be 11.2 ± 0.7 µg/mL (≈ 19.7 µM); with SKOV-3 cells, 12 ± 1.07 µg/mL (≈ 20.9 µM); in the test on MCF-7 cells, 11.6 ± 0.91 µg/mL (≈ 20.4 µM); in the test with HEK-293 cells, 14.6 ± 0.58 µg/mL (≈ 25.5 µM). Further, the “Selectivity index (SI)” value in the test with HeLa cells turned out to be 1.3; in the test with SKOV-3 cells, 1.2; in the test on MCF-7 cells, 1.2. In the test “ABTS assay”, the “IC50 ABTS” value is given as 496.63 ± 0.48 µg/mL (≈ 870 µM).
